Measurements published in PMC3320615, “β-Microseminoprotein Endows Post Coital Seminal Plasma with Potent Candidacidal Activity by a Calcium- and pH-Dependent Mechanism” (PLoS Pathogens, 2012).

Assays:
[1] = system: Candida albicans ATCC 90028; experiment: CFU assay with C. albicans; format: cell-based; details: for Estimate (difference between means of log values): control - treatment
Text: Candida albicans strains: ATCC 90028, CAF-1-2, SC5814, BM4f35II68, vaginal clinical isolates from Dept. of Clincal Microbiology, Skåne University Hospital, SO_303369 and SO_503471. Candida parapsilosis strains: ATCC 90018, BD1800, BD17837, and BM24/68/09. Candida glabrata strains: ATCC 90030, clinical isolates from Dept. of Clincal Microbiology, Skåne University Hospital, SO_3336, SO_3400 and SO_503413. All strains were inoculated from frozen culture and grown in Yeast extract-Peptone-Dextrose (YPD) (Sigma) and on Sabourand Dextrose Broth (SAB) (Difco) plates at 30°C with 5% (v/v) CO2. If not otherwise stated, ATCC 90028 was used for candidacidal experiments.
Candida albicans was grown over night, washed, and resuspended in 10 mM Tris, 5 mM glucose, pH 7.4 or pH 4. Approximately 4×10^3 to 10^4 CFU of C. albicans were incubated with the test substance in low or neutral pH buffer for 4 h at 37°C. After incubation, the suspension was diluted and plated. Colonies were counted after two days incubation of the plates at 30°C. Bacteria from overnight cultures were inoculated in fresh medium and grown for 3 h, washed in 10 mM Tris, 5 mM glucose pH 7.4. Approximately 8×10^4 CFU were incubated with sample in 10 mM Tris, 5 mM glucose pH 7.4 or pH 4 for 1 h at 37°C, diluted, plated and incubated over night at 37°C and the colonies counted.
Statistical analysis was performed using SAS 9.2 software (SAS Institute, Cary, NC). Colony counts were log transformed. In order to choose the statistical method, interactions between the Treatment and Experiment were investigated. Treatments were screened by doing pair wise comparisons of each treatment to a control. Statistical tests used for the comparisons included MIXED procedure and LSMEANS statement. All tests where P-value<.05 were considered to indicate statistical significance. P-values were not adjusted for the multiple comparisons.
“Estimate” is the estimate of the difference between means of log values of treatment 1 and treatment 2

[2] = Liposome leakage (carboxyfluorescein release); format: biochemical; details: % ± SD of leakage with Triton X-100, CF fluorescence 520 nm, 37°C, at least triplicate
Protocol: Subsequently, buffer (10 mM Tris, pH 7.4) was added together with 0.1 M carboxyfluorescein (CF) (Sigma, St Louis, MO). After hydration, the lipid mixture was subjected to eight freeze-thaw cycles consisting of freezing in liquid nitrogen and heating to 60°C. Unilamellar liposomes of about Ø140 nm were generated by multiple extrusions through polycarbonate filters (pore size 100 nm) mounted in a […] (Avestin, Ottawa, Canada) at 22°C. Untrapped CF was then removed by two gel filtrations (Sephadex G-50) at 22°C, with Tris buffer as eluent. CF release was determined by monitoring the emitted fluorescence at 520 nm from liposome dispersions (10 mM lipid in 10 mM Tris). An absolute leakage scale was obtained by disrupting the liposomes at the end of the experiment through addition of 0.8 mM Triton X100 (Sigma, St Louis, MO), causing 100% release and dequenching of CF. Although calcein is frequently used for pH-dependent leakage studies, the high charge of this dye has been noted to influence its leakage behavior in the presence of highly cationic peptides. Instead, therefore, CF was used as a leakage marker at both pH 6.0 and 7.4, avoiding pH-dependent fluorescence effects through neutralization prior to probing the limiting leakage in case of pH 6.0 leakage. Throughout, a SPEX-fluorolog 1650 0.22-m double spectrometer (SPEX Industries, Edison, NJ) was used for the liposome leakage assay. Measurements were performed in at least triplicate at 37°C.

With “RIFKKEDCKYI [MSP66–76, eleven residues at the very tip of the loop (residue 66–76)]” the “Estimate (difference between means of log values)” value ([1]; 50 µM + 50 µM EDTA, pH 7.4, + 50 µM calcium chloride, experiment 1) was 0.4123, the “Estimate (difference between means of log values)” value ([1]; 50 µM + 50 µM EDTA, pH 7.4, + 50 µM calcium chloride, experiment 2) was -0.3545 and the “Estimate (difference between means of log values)” value ([1]; 50 µM + 50 µM EDTA, pH 7.4, + 50 µM calcium chloride, experiment 3) was -0.7827. The “Estimate (difference between means of log values)” value ([1]; 50 µM + 50 µM EDTA, pH 7.4, + 50 µM calcium chloride, experiment 4) was 0.2633, the “Estimate (difference between means of log values)” value ([1]; 50 µM + 50 µM EDTA, pH 7.4, + 50 µM calcium chloride, experiment 5) was 0.02251 and the “Estimate (difference between means of log values)” value ([1]; 50 µM + 50 µM EDTA, pH 7.4, + 75 µM calcium chloride, experiment 1) was 0.2228. For the same sequence, the “Estimate (difference between means of log values)” value ([1]; 50 µM + 50 µM EDTA, pH 7.4, + 75 µM calcium chloride, experiment 2) was -0.4921, the “Estimate (difference between means of log values)” value ([1]; 50 µM + 50 µM EDTA, pH 7.4, + 75 µM calcium chloride, experiment 3) was -0.1876 and the “Estimate (difference between means of log values)” value ([1]; 50 µM + 50 µM EDTA, pH 7.4, + 75 µM calcium chloride, experiment 4) was -0.2469. For the same sequence, the “Estimate (difference between means of log values)” value ([1]; 50 µM + 50 µM EDTA, pH 7.4, + 75 µM calcium chloride, experiment 5) was -0.2312, the “Estimate (difference between means of log values)” value ([1]; 50 µM + 50 µM EDTA, pH 7.4, + 100 µM calcium chloride, experiment 1) was 0.07455 and the “Estimate (difference between means of log values)” value ([1]; 50 µM + 50 µM EDTA, pH 7.4, + 100 µM calcium chloride, experiment 2) was -0.1459. The “Estimate (difference between means of log values)” value ([1]; 50 µM + 50 µM EDTA, pH 7.4, + 100 µM calcium chloride, experiment 3) was -0.4793, the “Estimate (difference between means of log values)” value ([1]; 50 µM + 50 µM EDTA, pH 7.4, + 100 µM calcium chloride, experiment 4) was -0.1979 and the “Estimate (difference between means of log values)” value ([1]; 50 µM + 50 µM EDTA, pH 7.4, + 100 µM calcium chloride, experiment 5) was -0.3209. For the same sequence, the “Estimate (difference between means of log values)” value ([1]; 50 µM + 50 µM EDTA, pH 7.4, + 200 µM calcium chloride, experiment 1) was 0.4296, the “Estimate (difference between means of log values)” value ([1]; 50 µM + 50 µM EDTA, pH 7.4, + 200 µM calcium chloride, experiment 2) was -0.6341 and the “Estimate (difference between means of log values)” value ([1]; 50 µM + 50 µM EDTA, pH 7.4, + 200 µM calcium chloride, experiment 3) was -0.7050. The “Estimate (difference between means of log values)” value ([1]; 50 µM + 50 µM EDTA, pH 7.4, + 200 µM calcium chloride, experiment 4) was -0.2560, the “Estimate (difference between means of log values)” value ([1]; 50 µM + 50 µM EDTA, pH 7.4, + 200 µM calcium chloride, experiment 5) was 0.04894 and the “Estimate (difference between means of log values)” value ([1]; 50 µM + 50 µM EDTA, pH 7.4, no calcium, experiment 1) was 5.2769. The “Estimate (difference between means of log values)” value ([1]; 50 µM + 50 µM EDTA, pH 7.4, no calcium, experiment 2) was 4.2266, the “Estimate (difference between means of log values)” value ([1]; 50 µM + 50 µM EDTA, pH 7.4, no calcium, experiment 3) was 2.8351 and the “Estimate (difference between means of log values)” value ([1]; 50 µM + 50 µM EDTA, pH 7.4, no calcium, experiment 4) was 4.2317. The “Estimate (difference between means of log values)” value ([1]; 50 µM + 50 µM EDTA, pH 7.4, no calcium, experiment 5) was 5.0824, the “Estimate (difference between means of log values)” value ([1]; 50 µM, no EDTA, pH 4, + 50 µM calcium chloride, experiment 1) was 2.5872 and the “Estimate (difference between means of log values)” value ([1]; 50 µM, no EDTA, pH 4, + 50 µM calcium chloride, experiment 2) was 2.7886. For the same sequence, the “Estimate (difference between means of log values)” value ([1]; 50 µM, no EDTA, pH 4, + 50 µM calcium chloride, experiment 3) was 1.3256, the “Estimate (difference between means of log values)” value ([1]; 50 µM, no EDTA, pH 4, + 50 µM calcium chloride, experiment 4) was 2.0744 and the “Estimate (difference between means of log values)” value ([1]; 50 µM, no EDTA, pH 4, + 50 µM calcium chloride, experiment 5) was 1.7552. The “Estimate (difference between means of log values)” value ([1]; 50 µM, no EDTA, pH 4, + 75 µM calcium chloride, experiment 1) was 2.5170, the “Estimate (difference between means of log values)” value ([1]; 50 µM, no EDTA, pH 4, + 75 µM calcium chloride, experiment 2) was 1.9220 and the “Estimate (difference between means of log values)” value ([1]; 50 µM, no EDTA, pH 4, + 75 µM calcium chloride, experiment 3) was -0.3426. The “Estimate (difference between means of log values)” value ([1]; 50 µM, no EDTA, pH 4, + 75 µM calcium chloride, experiment 4) was 1.5746, the “Estimate (difference between means of log values)” value ([1]; 50 µM, no EDTA, pH 4, + 75 µM calcium chloride, experiment 5) was 1.0684 and the “Estimate (difference between means of log values)” value ([1]; 50 µM, no EDTA, pH 4, + 100 µM calcium chloride, experiment 1) was 0.6973. The “Estimate (difference between means of log values)” value ([1]; 50 µM, no EDTA, pH 4, + 100 µM calcium chloride, experiment 2) was 1.1772, the “Estimate (difference between means of log values)” value ([1]; 50 µM, no EDTA, pH 4, + 100 µM calcium chloride, experiment 3) was 0.01412 and the “Estimate (difference between means of log values)” value ([1]; 50 µM, no EDTA, pH 4, + 100 µM calcium chloride, experiment 4) was 1.0688. The “Estimate (difference between means of log values)” value ([1]; 50 µM, no EDTA, pH 4, + 100 µM calcium chloride, experiment 5) was 0.1005, the “Estimate (difference between means of log values)” value ([1]; 50 µM, no EDTA, pH 4, + 200 µM calcium chloride, experiment 1) was 1.0661 and the “Estimate (difference between means of log values)” value ([1]; 50 µM, no EDTA, pH 4, + 200 µM calcium chloride, experiment 2) was 0.6082. For the same sequence, the “Estimate (difference between means of log values)” value ([1]; 50 µM, no EDTA, pH 4, + 200 µM calcium chloride, experiment 3) was -0.8572, the “Estimate (difference between means of log values)” value ([1]; 50 µM, no EDTA, pH 4, + 200 µM calcium chloride, experiment 4) was 0.6184 and the “Estimate (difference between means of log values)” value ([1]; 50 µM, no EDTA, pH 4, + 200 µM calcium chloride, experiment 5) was -1.1924. The “Estimate (difference between means of log values)” value ([1]; 50 µM, no EDTA, pH 4, no calcium, experiment 1) was 5.4425, the “Estimate (difference between means of log values)” value ([1]; 50 µM, no EDTA, pH 4, no calcium, experiment 2) was 4.7863 and the “Estimate (difference between means of log values)” value ([1]; 50 µM, no EDTA, pH 4, no calcium, experiment 3) was 3.5454. The “Estimate (difference between means of log values)” value ([1]; 50 µM, no EDTA, pH 4, no calcium, experiment 4) was 4.0909, the “Estimate (difference between means of log values)” value ([1]; 50 µM, no EDTA, pH 4, no calcium, experiment 5) was 3.8004 and the “Estimate (difference between means of log values)” value ([1]; 140 µM + 0.5 mM calcium, pH 4, experiment 1) was 1.0371. The “Estimate (difference between means of log values)” value ([1]; 140 µM + 0.5 mM calcium, pH 4, experiment 2) was 0.7970, the “Estimate (difference between means of log values)” value ([1]; 140 µM + 0.5 mM calcium, pH 4, experiment 3) was -0.5619 and the “Estimate (difference between means of log values)” value ([1]; 140 µM + 0.5 mM calcium, pH 4, experiment 4) was 0.4135. The “Estimate (difference between means of log values)” value ([1]; 140 µM + 0.5 mM magnesium, pH 4, experiment 1) was 5.4081, the “Estimate (difference between means of log values)” value ([1]; 140 µM + 0.5 mM magnesium, pH 4, experiment 2) was 4.1263 and the “Estimate (difference between means of log values)” value ([1]; 140 µM + 0.5 mM magnesium, pH 4, experiment 3) was 2.8985. For the same sequence, the “Estimate (difference between means of log values)” value ([1]; 140 µM + 0.5 mM magnesium, pH 4, experiment 4) was 5.0596, the “Estimate (difference between means of log values)” value ([1]; 140 µM, pH 4, experiment 1) was 5.5432 and the “Estimate (difference between means of log values)” value ([1]; 140 µM, pH 4, experiment 2) was 4.1263. For the same sequence, the “Estimate (difference between means of log values)” value ([1]; 140 µM, pH 4, experiment 3) was 2.8985, the “Estimate (difference between means of log values)” value ([1]; 140 µM, pH 4, experiment 4) was 4.7326 and the “Calcium concentration that completely inhibited the antifungal activity” value ([1]; neutral pH (MSP66–76 with equimolar EDTA)) was 50 µM. It also gave a Liposome leakage ([2]; pH 6.0, +EDTA, DOPC/ergosterol liposomes) of 41±9%, a Liposome leakage ([2]; pH 6.0, without EDTA, DOPC/ergosterol liposomes) of 31±6% and a Liposome leakage ([2]; pH 7.4, +EDTA) of 16±7%. The Liposome leakage ([2]; pH 7.4, without EDTA) was 29±6%.
